Results taken from patent US8673281B2 (BioCis Pharma Oy, priority 2003, dated 2014).
Entries after “also recorded” stand apart in the source; their conditions may differ.

How the values were obtained:
[1] = Protonation state calculated with the Henderson-Hasselbalch Equation; details: pH 6.5
From the text: It can be hypothesized that the ability of UCA to acidify cytosol in living cells depends on two major parameters: the pH of the extracellular space and the initial pH of the cytosol. Because UCA is found mainly in the skin, one should consider these two parameters in the context of the physiological environment. It is well known that the human skin has an acid mantle with a surficial pH around 4-6. When the stratum corneum is stripped layer by layer, the pH increases gradually and, after total removal of the stratum corneum, the pH in the remaining epidermis is about 6.9 (Öhman & Vahlquist, 1994). In deeper layers, the almost neutral pH of the interior body is reached. A recent analysis provides evidence that UCA is the major pH-regulating factor in the human stratum corneum (Krien & Kermici 2000). The majority of UCA resides in the stratum corneum; however, a significant amount of UCA diffuses into and evidently also through the (epi)dermis, because elevated levels of cis-UCA can be detected in the urine within 1-4 h following total-body UVB exposure (Kammayer et al. 1997). […] In contrast, at a pH below the imidazolyl pKa's, UCA would be mainly in the protonated form capable of promoting cytosolic acidification upon cell entry. […] To provide experimental support for these hypotheses, we measured the change in cytosolic pH in UCA-treated cells. […]

[2] = cited from earlier work; for imidazolyl pKa: Roberts et al. 1982, Krien & Kermici 2000
[3] = pH effect of UCA isomers on incubation buffers; assay type: physicochemical; details: for pH of test solution after UCA supplementation: 3 mM UCA, unadjusted; for effect on pH of HBSS buffer: HBSS adjusted to pH 6.5 prior to UCA addition
From the text: As such, UCA resembles small ions (e.g., K^+, Na^+, H^+, […]) which enter the cell and modulate cell functions by altering the physico-chemical micro-environment (pH, ion potential, ion strength) of the cytosol. Therefore, we hypothesized that the high levels of intact UCA may provoke cellular changes simply due to its passive presence in the cytosol as an acid. […] Such a possibility was approached by testing the effect of UCA on pH first in a buffer solution and then in intact cells. […]

neutrophils [4] = assay: Respiratory burst activity, opsonized zymosan-induced chemiluminescence; assay type: cell-based, human; details: 3 mM UCA
Protocol: The respiratory burst activity was used as a measure of neutrophil function. The UCA isomers were tested in a chemiluminescence assay with opsonized zymosan as described (Kivistö et al. 1996). The peak values were recorded.
To examine how the cytosol-acidifying effect of UCA correlates with the previously reported inhibition of neutrophil respiratory burst activity, we measured the effect of 3 mM UCA on opsonized zymosan-induced chemiluminescence by the same batch of neutrophils and in the same experimental conditions described above, i.e. when the pH of the test solution was adjusted back to its initial level after UCA addition. […] In the same conditions, cis-UCA suppressed the respiratory burst activity by 15%±8.4% and 44%±1.3%, respectively. […] The corresponding inhibitions for cis-UCA were 41%±10% at pH 6.60±0.02 (nominal pH 7.4) and 48%±1.6% at pH 6.33±0.07 (nominal pH 6.5).

neutrophil cytosol = assay: UCA metabolism in neutrophil cytosol (TCA precipitation, scintillation counting, HPLC); assay type: in vitro ADME, human
Protocol: An aminopropyl stationary phase column Lichrosorb NH2, Hibar RT, 250×4 mm, 5 μm (Merck, Darmstadt, Germany) was used. The eluent was a 50% (v/v) mixture of acetonitrile and a solution of 2% (v/v) acetic acid and 0.5% (w/v) ammonium acetate in water (pH ca. 5). The isomers were detected at 268 nm, and the retention times were Tr(cis) 3.7 min and Tr(trans) 5.4 min.
Samples were mixed with OptiPhase HiSafe 2 scintillation liquid (EG&G Wallac, Turku, Finland) and [^14C]UCA radioactivity measured in RackBeta 1214 scintillation counter (EG&G Wallac). The counting efficiency was 96.7%±0.12% (mean±SEM, n=48).
Next, we examined whether the [^14C]UCA in the cytosol was metabolized by neutrophils after the uptake by determining how much of the radioactive label was associated with intact UCA. This was carried out by precipitating the cytosolic proteins of [^14C]UCA-labeled neutrophils with 10% trichloracetic acid (TCA) on ice overnight. The amount of radioactive label was then measured both in the precipitate and in the protein-free supernatant by scintillation counting, and the content of intact UCA in the supernatant by HPLC.

neutrophils [5] = assay: Monitoring of intracellular pH (BCECF flow cytometry, nigericin calibration); assay type: cell-based, human; details: for effect on intracellular BCECF signal: extracellular pH adjusted to 7.4
Protocol: Intracellular pH levels in neutrophils were monitored with flow cytometry utilizing a pH-sensitive fluorescent dye 2′,7′-bis-(2-carboxyethyl)-5-(and-6)-carboxyfluorescein (BCECF, acetoxymethyl ester; Molecular Probes, Leiden, The Netherlands). About 30×10^6 cells were incubated in 10 ml HBSS, pH 7.4, containing 0.35 μM BCECF at 25° C. for 30 min, washed twice in HBSS, and resuspended in 1 ml of 154 mM NaCl. Aliquot (235 μl) of the incubation medium with known UCA concentrations and checked pH was applied to the cells (4.5×10^5 cells/15 μl NaCl) in polystyrene tubes, incubated at 25° C. for about 20 min, and analyzed in a flow cytometer.
Calibration of intracellular pH was performed in situ using the K^+/H^+ ionophore nigericin. An excess of pH calibration buffers (10 mM Pipes, 131 mM KCl, pH adjusted to 6.10, 6.50, 6.80, 7.10, 7.40, and 7.60 or 7.70) and 10 μM nigericin was added to the BCECF-labelled cells in 154 mM NaCl. The cells were kept at room temperature and analysed by flow cytometry within 45 min. Cells incubated with or without UCA were analysed for intracellular pH simultaneously. The pH was adjusted to the same values as those in the calibration buffers. Intracellular pH was determined from a BCECF fluorescence intensity calibration curve.

histamine receptors = details: Laihia, 1998; cited from earlier work
[6] = pH left unadjusted, nominal pH 6.5
[7] = pH left unadjusted, nominal pH 7.4
[8] = 3 mM UCA, extracellular pH 6.1-7.7, effect below pH 7

SMILES	fraction in deprotonated state [1] [%]	imidazolyl pKa [2]	pH of test solution after UCA supplementation ([3]; nominal pH 6.5)	pH of test solution after UCA supplementation ([3]; nominal pH 7.4)	effect on pH of HBSS buffer [3]	inhibition of respiratory burst chemiluminescence (neutrophils [4]; pH adjusted back to 6.5, n=3)	inhibition of respiratory burst chemiluminescence (neutrophils [4]; pH adjusted back to 7.4)	inhibition of respiratory burst chemiluminescence (neutrophils [4]; [6])	inhibition of respiratory burst chemiluminescence (neutrophils [4]; [7])	recovery of [14C]UCA activity in protein-free supernatant (neutrophil cytosol; human)	effect on intracellular pH (nigericin calibration) (neutrophils [5]; [8])	effect on intracellular BCECF signal (neutrophils [5]; 3 mM UCA)	binding to histamine receptors (histamine receptors)	fraction in protonated state [1]	pKa of the carboxyl group ([2]; Roberts 1982)	recovery of [14C]UCA activity in protein-free supernatant (neutrophil cytosol; 10% TCA precipitation of cytosolic proteins, cis n=9, trans n=4)	effect on intracellular pH (nigericin calibration) (neutrophils [5]; 0.3 mM UCA, same pH range)
O=C(O)C=Cc1c[nH]cn1 [trans-UCA, 3-(1H-imidazol-4-yl)-2-propenoic acid, reference compound]	70	~6.1	5.87±0.06	6.22±0.02	markedly reduce the pH; also recorded: dropped the pH	14%±4.0%	no effect	48%±4.0%	31%±8.4%	100.2%±0.9%	only a minor effect	no significant effect					
O=C(O)/C=C\c1c[nH]cn1 [cis-UCA, cis-urocanic acid]		~7.0	6.33±0.07	6.60±0.02	almost no effect	44%±1.3%	15%±8.4%	48%±1.6%	41%±10%		lowers the intracellular pH	no significant effect	does not directly bind	over 70%	~3.3	102%±3.9%	much smaller effect
